As a reminder, the IC50 is the concentration needed to halve the response being measured. A higher IC50 goes with a need for much substance.

The target in the experiment is T1, Full-length, GST-tagged, human CaMKIIδ (Homo sapiens, UniProt Q13557).
T1 construct: Full-Length, Glutathione-S-Transferase(GST)-Tagged, Human CaMKIIδ was purchased from Carna Biosciences; purchased Carna Biosciences 02-111
Kind of experiment: CaMKIIδ binding assay (TR-FRET with BODIPY-labeled probe ligand). In a few lines:
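Compounds were tested as 4-fold, eight-point series for 1 hr at room temperature, and IC50 was obtained by logistic fitting against a 3 μM parent-compound control. Signal came from displacement of a 300 nM BODIPY ligand from 0.5 nM GST-CaMKIIδ, detected via Tb-anti-GST in calmodulin/Ca2+ (pH 7.6).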
For orientation: In TR-FRET formats the signal depends on donor and acceptor labels being close together.

Where [1] appears, read: CaMKIIδ binding assay, results of Table 2.
The mark [2] stands for this setting: Table 2, CaMKIIδ binding assay, activity given as class A/B/C.
[3] abbreviates: Table 2, activity class for CaMKIIδ.
Where [4] appears, read: CaMKIIδ binding assay, activity class per Table 2.

Molecules are shown by their SMILES. A value given as a limit tells only on which side of the number the result lay.

T1 sequence (Q13557 1-478 isoform Q13557-12): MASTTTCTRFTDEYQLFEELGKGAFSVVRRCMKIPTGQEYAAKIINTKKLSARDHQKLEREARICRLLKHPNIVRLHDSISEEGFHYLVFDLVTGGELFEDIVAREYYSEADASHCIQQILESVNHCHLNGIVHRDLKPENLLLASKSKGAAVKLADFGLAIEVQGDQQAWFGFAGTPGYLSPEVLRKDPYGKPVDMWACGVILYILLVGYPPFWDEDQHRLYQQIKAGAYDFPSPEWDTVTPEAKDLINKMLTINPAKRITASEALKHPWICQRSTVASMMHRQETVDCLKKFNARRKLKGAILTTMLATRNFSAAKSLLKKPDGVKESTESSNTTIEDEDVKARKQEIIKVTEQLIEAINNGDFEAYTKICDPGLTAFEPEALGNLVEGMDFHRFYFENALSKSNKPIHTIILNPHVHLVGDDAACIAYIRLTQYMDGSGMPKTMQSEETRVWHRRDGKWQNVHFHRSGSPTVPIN

Under setting [1], `COc1cc2c(cc1Nc1ncc(-c3ccc(Cl)c(O[C@@H](C)Cn4cnnn4)c3)cn1)CCN(c1ccnc(C)n1)C2` [Example 505, (S)-N-(5-(3-((1-(1H-tetrazol-1-yl)propan-2-yl)oxy)-4-chlorophenyl)pyrimidin-2-yl)-7-methoxy-2-(2-methylpyrimidin-4-yl)-1,2,3,4-tetrahydroisoquinolin-6-amine] had a 50% inhibitory concentration (IC50) of 0.01 to 0.1 µM.

`C[C@@H](Cn1cnnn1)Oc1cc(-c2cnc(Nc3cn([C@H]4CC[C@H](N5CCOCC5)CC4)nc3OCC(F)(F)F)nc2)ccc1F` [Example 813, 5-(3-(((S)-1-(1H-tetrazol-1-yl)propan-2-yl)oxy)-4-fluorophenyl)-N-(1-(trans-4-morpholinocyclohexyl)-3-(2,2,2-trifluoroethoxy)-1H-pyrazol-4-yl)pyrimidin-2-amine]: the IC50 under setting [2] was < 0.01 µM.

For the compound `COc1cc(N2CCC(N3CCOCC3)CC2)ccc1Nc1ncc(-c2cc(O[C@@H](C)Cn3cnnn3)c(Cl)cn2)cn1` [Example 534, (S)-5-(4-((1-(1H-tetrazol-1-yl)propan-2-yl)oxy)-5-chloropyridin-2-yl)-N-(2-methoxy-4-(4-morpholinopiperidin-1-yl)phenyl)pyrimidin-2-amine], the IC50 under setting [1] was ≥ 0.1 µM.

Under setting [1], `C[C@@H](Cn1cnnn1)Oc1cc(-c2cnc(Nc3cn(C4CCN(CC(F)F)CC4)nc3C(F)(F)F)nc2)ccc1Cl` [Example 485, (S)-5-(3-((1-(1H-tetrazol-1-yl)propan-2-yl)oxy)-4-chlorophenyl)-N-(1-(1-(2,2-difluoroethyl)piperidin-4-yl)-3-(trifluoromethyl)-1H-pyrazol-4-yl)pyrimidin-2-amine] registered a half-maximal inhibitory concentration (IC50) of 0.01 to 0.1 µM.

On to `COc1cc2c(cc1Nc1ncc(-c3ccc(C#N)c(O[C@@H](C)Cn4cnnn4)c3)cn1)CCN(C(=O)C(F)(F)F)C2` [Example 458, (S)-2-((1-(1H-tetrazol-1-yl)propan-2-yl)oxy)-4-(2-((7-methoxy-2-(2,2,2-trifluoroacetyl)-1,2,3,4-tetrahydroisoquinolin-6-yl)amino)pyrimidin-5-yl)benzonitrile], for which the IC50 under setting [1] lay within 0.01 to 0.1 µM.

In the case of `CC(C)N1CC2(CC(n3cc(Nc4ncc(-c5ccc(Cl)c(O[C@@H](C)Cn6cnnn6)c5)cn4)c(OCC(F)(F)F)n3)C2)C1` [Example 815, (S)-5-(3-((1-(1H-tetrazol-1-yl)propan-2-yl)oxy)-4-chlorophenyl)-N-(1-(2-isopropyl-2-azaspiro[3.3]heptan-6-yl)-3-(2,2,2-trifluoroethoxy)-1H-pyrazol-4-yl)pyrimidin-2-amine], the half-maximal inhibitory concentration (IC50) under setting [2] was < 0.01 µM.

Turning to `C[C@@H](Cn1cnnn1)Oc1cc(-c2cnc(Nc3cc(N4CCC(N5CCOCC5)CC4)ccc3F)nc2)ccc1Cl` [Example 580, (S)-5-(3-((1-(1H-tetrazol-1-yl)propan-2-yl)oxy)-4-chlorophenyl)-N-(2-fluoro-5-(4-morpholinopiperidin-1-yl)phenyl)pyrimidin-2-amine], under setting [1], the half-inhibitory concentration (IC50) was < 0.01 µM.

`C[C@@H](Cn1cnnn1)Oc1cc(-c2cnc(Nc3cn(C4CC5(C4)CN(C4COC4)C5)nc3C(F)(F)F)nc2)ccc1Cl` [Example 832, (S)-5-(3-((1-(1H-tetrazol-1-yl)propan-2-yl)oxy)-4-chlorophenyl)-N-(1-(2-(oxetan-3-yl)-2-azaspiro[3.3]heptan-6-yl)-3-(trifluoromethyl)-1H-pyrazol-4-yl)pyrimidin-2-amine]: under setting [2], the IC50 is < 0.01 µM.

As to `COc1cc2c(cc1Nc1ncc(-c3ccc(Cl)c(O[C@@H](C)Cn4cnnn4)c3)cn1)CN(C(=O)CN1CCOCC1)CC2` [Example 501, (S)-1-(7-((5-(3-((1-(1H-tetrazol-1-yl)propan-2-yl)oxy)-4-chlorophenyl)pyrimidin-2-yl)amino)-6-methoxy-3,4-dihydroisoquinolin-2(1H)-yl)-2-morpholinoethan-1-one], the IC50 under setting [1] was 0.01 to 0.1 µM.

As to `C[C@@H](Cn1cnnn1)Oc1cc(-c2cnc(Nc3ccc4c(c3)N(C(=O)CCN(C)C)CC4)nc2)ccc1Cl` [Example 437, (S)-1-(6-((5-(3-((1-(1H-tetrazol-1-yl)propan-2-yl)oxy)-4-chlorophenyl)pyrimidin-2-yl)amino)indolin-1-yl)-3-(dimethylamino)propan-1-one], the half-maximal inhibitory concentration (IC50) under setting [1] is < 0.01 µM.

Turning to `C[C@@H](Cn1cnnn1)Oc1cc(-c2cnc(Nc3cn([C@H]4CC[C@H](N5CCOCC5)CC4)nc3OC3COC3)nc2)ccc1Cl` [Example 821, 5-(3-(((S)-1-(1H-tetrazol-1-yl)propan-2-yl)oxy)-4-chlorophenyl)-N-(1-(trans-4-morpholinocyclohexyl)-3-(oxetan-3-yloxy)-1H-pyrazol-4-yl)pyrimidin-2-amine], the half-maximal inhibitory concentration (IC50) under setting [2] was < 0.01 µM.

Regarding `COc1ccc(N2CCNCC2)cc1Nc1ncc(-c2ccc(Cl)c(O[C@@H](C)Cn3cnnn3)c2)cn1` [Example 533, (S)-5-(3-((1-(1H-tetrazol-1-yl)propan-2-yl)oxy)-4-chlorophenyl)-N-(2-methoxy-5-(piperazin-1-yl)phenyl)pyrimidin-2-amine], under setting [1], the IC50 was < 0.01 µM.

On to `C[C@@H](Cn1cnnn1)Oc1cc(-c2cnc(Nc3cn(C4CCN(C5CCN(C6CC6)CC5)CC4)nc3C(F)(F)F)nc2)ccc1Cl` [Example 558, (S)-5-(3-((1-(1H-tetrazol-1-yl)propan-2-yl)oxy)-4-chlorophenyl)-N-(1-(1′-cyclopropyl-[1,4′-bipiperidin]-4-yl)-3-(trifluoromethyl)-1H-pyrazol-4-yl)pyrimidin-2-amine], for which the half-inhibitory concentration (IC50) under setting [1] is < 0.01 µM.

Turning to `C[C@@H](Cn1cnnn1)Oc1cc(-c2cnc(Nc3cn([C@H]4CC[C@@H](C(=O)O)CC4)nc3C(F)(F)F)nc2)ccc1Cl` [Example 625, cis-(S)-4-(4-((5-(3-((1-(1H-tetrazol-1-yl)propan-2-yl)oxy)-4-chlorophenyl)pyrimidin-2-yl)amino)-3-(trifluoromethyl)-1H-pyrazol-1-yl)cyclohexane-1-carboxylic acid], under setting [3], the IC50 was ≥ 0.1 µM.

With `CC(Cn1cnnn1)Oc1cc(-c2cnc(Nc3cn(CC4(O)CCC(C)(O)CC4)nc3OCC(F)(F)F)nc2)ccc1Cl` [Example 923, trans-1-((4-((5-(3-(((S)-1-(1H-tetrazol-1-yl)propan-2-yl)oxy)-4-chlorophenyl)pyrimidin-2-yl)amino)-3-(2,2,2-trifluoroethoxy)-1H-pyrazol-1-yl)methyl)-4-methylcyclohexane-1,4-diol], under setting [4], the IC50 was < 0.01 µM.

For the compound `COc1cc(N2CCOC(CO)C2)ccc1Nc1ncc(-c2ccc(Cl)c(O[C@@H](C)Cn3cnnn3)c2)cn1` (stereo partly drawn) [Example 594, (4-(4-((5-(3-(((S)-1-(1H-tetrazol-1-yl)propan-2-yl)oxy)-4-chlorophenyl)pyrimidin-2-yl)amino)-3-methoxyphenyl)morpholin-2-yl)methanol], the IC50 under setting [3] was 0.01 to 0.1 µM.

For `C[C@@H](Cn1cnnn1)Oc1cc(-c2cnc(Nc3cn([C@H]4CC[C@@H](N5CC6(COC6)C5)CC4)nc3OCC(F)F)nc2)ccc1Cl` [Example 828, 5-(3-(((S)-1-(1H-tetrazol-1-yl)propan-2-yl)oxy)-4-chlorophenyl)-N-(1-(cis-4-(2-oxa-6-azaspiro[3.3]heptan-6-yl)cyclohexyl)-3-(2,2-difluoroethoxy)-1H-pyrazol-4-yl)pyrimidin-2-amine], the IC50 under setting [2] was < 0.01 µM.

Under setting [1], `C[C@@H](Cn1cnnn1)Oc1cc(-c2cnc(Nc3cc(C4CCN(C5COC5)CC4)c(F)cc3F)nc2)ccc1Cl` [Example 578, (S)-5-(3-((1-(1H-tetrazol-1-yl)propan-2-yl)oxy)-4-chlorophenyl)-N-(2,4-difluoro-5-(1-(oxetan-3-yl)piperidin-4-yl)phenyl)pyrimidin-2-amine] came in with an IC50 of 0.01 to 0.1 µM.

Take `COc1nn(C2CCN(C3COC3)CC2)cc1Nc1ncc(-c2ccc(Cl)c(O[C@@H](C)Cn3cnnn3)c2)cn1` [Example 661, (S)-5-(3-((1-(1H-tetrazol-1-yl)propan-2-yl)oxy)-4-chlorophenyl)-N-(3-methoxy-1-(1-(oxetan-3-yl)piperidin-4-yl)-1H-pyrazol-4-yl)pyrimidin-2-amine]: the half-maximal inhibitory concentration (IC50) under setting [3] was < 0.01 µM.

As for `COc1cc(C2=CCN(C3COC3)CC2)c(C)cc1Nc1ncc(-c2ccc(Cl)c(O[C@@H](C)Cn3cnnn3)c2)cn1` [Example 531, (S)-5-(3-((1-(1H-tetrazol-1-yl)propan-2-yl)oxy)-4-chlorophenyl)-N-(2-methoxy-5-methyl-4-(1-(oxetan-3-yl)-1,2,3,6-tetrahydropyridin-4-yl)phenyl)pyrimidin-2-amine], the concentration for half-maximal inhibition (IC50) under setting [1] fell in the range of 0.01 to 0.1 µM.

Compound `C[C@@H](Cn1cnnn1)Oc1cc(-c2cnc(Nc3cn(C4CCN(Cc5cccnc5)CC4)nc3C(F)(F)F)nc2)ccc1Cl` [Example 563, (S)-5-(3-((1-(1H-tetrazol-1-yl)propan-2-yl)oxy)-4-chlorophenyl)-N-(1-(1-(pyridin-3-ylmethyl)piperidin-4-yl)-3-(trifluoromethyl)-1H-pyrazol-4-yl)pyrimidin-2-amine] yielded a 50% inhibitory concentration (IC50) under setting [1] of 0.01 to 0.1 µM.

As for `C[C@@H](Cn1cnnn1)Oc1cc(-c2cnc(Nc3cn(C4CC5(C4)CN(C4(C)CCOC4)C5)nc3OCC(F)(F)F)nc2)ccc1Cl` (stereo partly drawn) [Example 954, 5-(3-(((S)-1-(1H-tetrazol-1-yl)propan-2-yl)oxy)-4-chlorophenyl)-N-(1-(2-(3-methyltetrahydrofuran-3-yl)-2-azaspiro[3.3]heptan-6-yl)-3-(2,2,2-trifluoroethoxy)-1H-pyrazol-4-yl)pyrimidin-2-amine], under setting [4], the half-inhibitory concentration (IC50) was < 0.01 µM.

On to `Cc1c(Nc2ncc(-c3ccc(Cl)c(O[C@@H](C)Cn4cnnn4)c3)cn2)cnn1C` [Example 731, (S)-5-(3-((1-(1H-tetrazol-1-yl)propan-2-yl)oxy)-4-chlorophenyl)-N-(1,5-dimethyl-1H-pyrazol-4-yl)pyrimidin-2-amine], for which the IC50 under setting [3] lay in the range of 0.01 to 0.1 µM.

As for `COc1nc(N2CCN(C3CC3)CC2)ccc1Nc1ncc(-c2ccc(Cl)c(O[C@@H](C)Cn3cnnn3)c2)cn1` [Example 671, (S)-5-(3-((1-(1H-tetrazol-1-yl)propan-2-yl)oxy)-4-chlorophenyl)-N-(6-(4-cyclopropylpiperazin-1-yl)-2-methoxypyridin-3-yl)pyrimidin-2-amine], the IC50 under setting [3] was < 0.01 µM.

The values are drawn from patent US10543212B2, “Substituted amines for treating cardiac diseases” (Cardurion Pharmaceuticals, LLC, priority 2017, dated 2020).
